Measurements published in PubChem BioAssay AID1549 (Sanford-Burnham Center for Chemical Genomics, 2009).
Activity calls are given as the source filed them. The rule behind the calls is not given here.

Target: Influenza A virus M2 proton channel (A/TW/4845/1999 H1N1)
Assay: M2 proton channel binding, NMR based, influenza A virus H1N1 strain (AID 1549)
Details: NMR binding screen, M2 protein

Structure (SMILES) | Kd
O=C(Nc1nncs1)Oc1ccccc1 | > 4 mM (inactive)
O=C(c1cccc(C(F)(F)F)c1)N1CCCC1 | > 4 mM (inactive)
O=C(O)C1CCCCN1Cc1ccccc1 (stereo not drawn) | > 4 mM (inactive)
O=C(NN1CCOCC1)c1ccccc1F | > 4 mM (inactive)
CN1CCCCC1c1ccc(-c2cccnc2)nc1 (stereo not drawn) | > 4 mM (inactive)
CN(C)S(=O)(=O)c1ccc(NC=O)cc1 | > 4 mM (inactive)
CC(C)(OC(=O)c1ccccc1)[C@@H]1Cc2cc3ccc(=O)oc3cc2O1 | > 4 mM (inactive)
COc1ccc(-c2nnsc2N)cc1 | > 4 mM (inactive)
CCCOn1nnnc1-c1ccccc1 | > 4 mM (inactive)
CC(C)(O)P(C)(=O)c1ccccc1 (stereo not drawn) | > 4 mM (inactive)
CS(=O)(=O)NC1CCN(Cc2ccccc2)CC1 | > 4 mM (inactive)
C=C1[C@H]2CC[C@@]3(C)[C@H](c4ccoc4)OC(=O)C[C@]13O[C@H]1C[C@H](O)C(C)(C)[C@H](CC(=O)OC)[C@]12C | > 4 mM (inactive)
COCC(=O)/C=C1\Sc2ccccc2N1C | > 4 mM (inactive)
O=C(Nc1cccnc1)N1CCOCC1 | > 4 mM (inactive)
NC(=O)CSc1nc2ccccc2o1 | > 4 mM (inactive)
CC1(C)CC[C@]2(C(=O)O)CC[C@]3(C)C(=CCC4[C@@]5(C)CC[C@@H](O)C(C)(C)C5CC[C@]43C)C2C1 (stereo partly drawn) | > 4 mM (inactive)
CC1(C)CC[C@]2(C)CC[C@]3(C)C(=CCC4[C@@]5(C)CC[C@H](O)C(C)(C)C5CC[C@]43C)C2C1 (stereo partly drawn) | > 4 mM (inactive)
NC(=O)CSc1nc2ncnc(N)c2[nH]1 | > 4 mM (inactive)
CC(=O)N1CCn2c3c(c(=O)c4cc(C)ccc42)CCC31 (stereo not drawn) | > 4 mM (inactive)
Cc1cc(C(=O)Nc2ccccn2)no1 | > 4 mM (inactive)
CSc1nc(O)cc(=O)[nH]1 | > 4 mM (inactive)
Oc1ccccc1N1CCOCC1 | > 4 mM (inactive)
O=C1NC(=Nc2ccccc2Cl)SC1(CO)CO | > 4 mM (inactive)
COc1ccccc1NC(=O)/C=N/O | > 4 mM (inactive)

Structure (SMILES) | Kd
O=C(Nc1ccncc1)c1cncc(Br)c1 | > 4 mM (inactive)
N#Cc1c(N)c(C(=O)c2ccccc2)n2c1CCC2 | > 4 mM (inactive)
O=C(O)c1cccnc1N1CCOCC1 | > 4 mM (inactive)
COC(=O)/C(C)=C\CC12OC(C)(C)C3CC(C=C4C(=O)c5c(OC)c6c(c(CC=C(C)C)c5OC431)OC(C)(CCC=C(C)C)C=C6)C2=O (stereo not drawn) | > 4 mM (inactive)
COc1cc(C(=S)N2CCC(C(N)=O)CC2)ccc1O | > 4 mM (inactive)
Cn1c(NCc2ccccc2O)nc2ccccc21 | > 4 mM (inactive)
O=C(Nc1ccc2c(c1)CCC2)c1cnccn1 | > 4 mM (inactive)
CSc1nc(=O)[nH]c2c1CCC2 | > 4 mM (inactive)
Cc1occc1C(=O)Nc1cc(C(C)(C)C)on1 | > 4 mM (inactive)
N#Cc1nc(-c2cccs2)oc1N1CCOCC1 | > 4 mM (inactive)
NC(=O)c1ccc(SCC(=O)O)c([N+](=O)[O-])c1 | > 4 mM (inactive)
Cc1cccc(-n2c(N)cc(=O)[nH]c2=S)c1C | > 4 mM (inactive)
O=c1[nH]cc(CN2CCOCC2)c(=O)[nH]1 | > 4 mM (inactive)
Cc1sc2nc(NCCO)[nH]c(=O)c2c1C | > 4 mM (inactive)
COC(=O)c1ccc2nccnc2c1 | > 4 mM (inactive)
CC(=O)Oc1ccc2c(c1OC(C)=O)OCC1(O)Cc3c(cc(OC(C)=O)c(OC(C)=O)c3OC(C)=O)C21 (stereo not drawn) | > 4 mM (inactive)
CC1CC2(NC(=O)NC2=O)C(C)CN1C (stereo not drawn) | > 4 mM (inactive)
c1ccc(-n2nnnc2-n2cnc3ccccc32)cc1 | > 4 mM (inactive)
COc1ccc(C)cc1-n1c(-c2ccncc2)n[nH]c1=S | > 4 mM (inactive)
CN1CCCn2c1nc1c2c(=O)[nH]c(=O)n1C | > 4 mM (inactive)
COC(=O)c1c(SC)nc(-c2ccccc2)[nH]c1=O | > 4 mM (inactive)
CCC(CO)NC(=O)c1snnc1C (stereo not drawn) | > 4 mM (inactive)
NC1CCN(Cc2ccccc2)CC1 | > 4 mM (inactive)
O=C(NCc1cccc(Cl)c1)c1cnccn1 | > 4 mM (inactive)

Structure (SMILES) | Kd
Cc1ccc(S(C)(=O)=O)s1 | > 4 mM (inactive)
c1ccc(Cc2nnc3sc(-c4ccccn4)nn23)cc1 | > 4 mM (inactive)
OCc1cccc2c1OCO2 | > 4 mM (inactive)
O=C(c1ccco1)N1CCN(Cc2cccc(F)c2)CC1 | > 4 mM (inactive)
CC(=O)Oc1cccc2ccc(=O)[nH]c12 | > 4 mM (inactive)
Cc1onc(-c2ccc(F)cc2)c1C(=O)O | > 4 mM (inactive)
CN1CN(Cc2ccccc2)CN/C1=N/[N+](=O)[O-] | > 4 mM (inactive)
NCCc1c[nH]c2ccccc12 | > 4 mM (inactive)
Cc1cc(C(=O)NC(C)c2ccncc2)cs1 (stereo not drawn) | > 4 mM (inactive)
Cn1cnc2c(Cl)ncnc21 | > 4 mM (inactive)
CN(C)c1nc(N)nc(-c2nc3ccccc3s2)n1 | > 4 mM (inactive)
CNC(=O)c1cc(S(=O)(=O)N(C)C)ccc1Cl | > 4 mM (inactive)
COC(=O)[C@@H]1C(O)CC[C@H]2CN3CCc4c([nH]c5ccccc45)[C@@H]3C[C@@H]21 (stereo partly drawn) | > 4 mM (inactive)
CCOC(=O)c1ccc(F)c(F)c1 | > 4 mM (inactive)
COc1ccc2nc(NC(=O)c3cnccn3)sc2c1 | > 4 mM (inactive)
CN(C)N1C(=O)C2CCCCC2C1=O (stereo not drawn) | > 4 mM (inactive)
O=C1C=CC(=O)N1c1ccc(N2CCOCC2)cc1 | > 4 mM (inactive)
O=C(O[C@@H]1Cc2c(O)cc(O)cc2O[C@@H]1c1cc(O)c(O)c(O)c1-c1c([C@H]2Oc3cc(O)cc(O)c3C[C@H]2O)cc(O)c(O)c1O)c1cc(O)c(O)c(O)c1 | > 4 mM (inactive)
NC(=O)c1ccc(N2C(=O)C=CC2=O)cc1Cl | > 4 mM (inactive)
O=S(=O)(Nc1cccc2cn[nH]c12)c1ccc(F)cc1 | > 4 mM (inactive)
Nc1cc(=O)[nH]c(=O)n1Cc1ccco1 | > 4 mM (inactive)
Cc1csc(NC(=O)c2ccoc2C)n1 | > 4 mM (inactive)
CC(=O)c1c(C)nn(CC(=O)O)c1C | > 4 mM (inactive)
COc1c(O)cc2c(c1O)[C@H]1O[C@H](CO)[C@@H](O)[C@H](O)[C@@H]1OC2=O | > 4 mM (inactive)

Structure (SMILES) | Kd
CNc1nc(OC)nc(N2CCOCC2)n1 | > 4 mM (inactive)
Cn1cccc1C(=O)NS(=O)(=O)c1ccccc1Cl | > 4 mM (inactive)
Cc1csc(NC(=O)c2cccs2)n1 | > 4 mM (inactive)
O=C(NCC1CCCCC1)c1ccco1 | > 4 mM (inactive)
Cn1ncc2c(=O)n(CC(=O)c3ccccc3)cnc21 | > 4 mM (inactive)
Cc1ccc(C(=O)Nc2ccncc2)o1 | > 4 mM (inactive)
O=C(O)CCCNC(=O)c1ccccc1C(=O)O | > 4 mM (inactive)
Cc1cccnc1NC1=NCC(C)S1 (stereo not drawn) | > 4 mM (inactive)
O=C(O)c1ccc2sccc2c1 | > 4 mM (inactive)
CN(C)C(=O)c1ccccc1-c1ccccc1 | > 4 mM (inactive)
Cc1nnc(NCCO)[nH]c1=O | > 4 mM (inactive)
COc1cc2c(cc1O)[C@@H](Cc1ccc(O)cc1)[N+](C)(C)CC2 | > 4 mM (inactive)
O=P1(O)c2ccccc2Nc2ccccc21 | > 4 mM (inactive)
CN(C)N1C(=O)c2ccccc2C1=O | > 4 mM (inactive)
OCc1ccc2nsnc2c1 | > 4 mM (inactive)
CC(=O)Nc1cnn(Cc2ccc(Br)cc2)c1 | > 4 mM (inactive)
C=C1CCC(C2CC(=O)OC2=O)C(=O)CCC2C1CC2(C)C (stereo not drawn) | > 4 mM (inactive)
Cc1noc(C)c1C(=O)N1CCC2(CC1)OCCO2 | > 4 mM (inactive)
CC(=O)Nc1sccc1C(N)=O | > 4 mM (inactive)
Cc1nnc(C)n1/N=C/c1cccs1 | > 4 mM (inactive)
CNC(=O)Nc1ccc(C(=O)NC)cc1 | > 4 mM (inactive)
CCn1nnc(NC(=O)c2ccccc2Br)n1 | > 4 mM (inactive)
CC(=O)Nn1c(=O)[nH]c2ccccc2c1=O | > 4 mM (inactive)
O=C(NCO)c1ccccc1Cl | > 4 mM (inactive)

Structure (SMILES) | Kd
Cc1ccc(SCc2cc(=O)n3[nH]cnc3n2)cc1 | > 4 mM (inactive)
CC(=O)O[C@@H]1CC2C(C)(C)C(=O)[C@@H]3O[C@@H]3[C@]2(C)C2CC[C@]3(C)C(=CC(=O)O[C@H]3c3ccoc3)[C@@]21C (stereo partly drawn) | > 4 mM (inactive)
Cn1c(=O)c2c(ncn2C)n(C)c1=O | > 4 mM (inactive)
CC(=O)Nc1ccc(C)cc1NC(C)=O | > 4 mM (inactive)
Cc1cc([N+](=O)[O-])cc[n+]1[O-] | > 4 mM (inactive)
CC(=O)Nc1ccncc1NC(C)=O | > 4 mM (inactive)
COC(=O)c1cc(C)on1 | > 4 mM (inactive)
CCOC(=O)c1c(SC)nc(=O)[nH]c1C | > 4 mM (inactive)
Cc1nnc2n(c1=O)N=C(c1ccccc1)CS2 | > 4 mM (inactive)
O=C(NCc1ccc2c(c1)OCO2)c1cccs1 | > 4 mM (inactive)
COc1ccc([C@@H]2CC(=O)c3c(O)cc(O[C@@H]4O[C@H](CO[C@H]5O[C@@H](C)[C@H](O)[C@@H](O)[C@H]5O)[C@@H](O)[C@H](O)[C@H]4O)cc3O2)cc1O | > 4 mM (inactive)
COc1nc(C#N)c(N2CCOCC2)o1 | > 4 mM (inactive)
O=C1Cc2ccccc2N1c1ccccc1 | > 4 mM (inactive)
Cc1cc2c(nn1)CCc1nonc1-2 | > 4 mM (inactive)
CC(=O)Nc1nnc(-c2ccco2)o1 | > 4 mM (inactive)
CC(C)(C)NC(=O)CN1C(=O)c2ccccc2S1(=O)=O | > 4 mM (inactive)
Cn1cnc2c(cnn2-c2ccccc2)c1=O | > 4 mM (inactive)
Nc1cc(F)nc(F)n1 | > 4 mM (inactive)
Nc1nc(CSc2ncn(-c3ccccc3)n2)cs1 | > 4 mM (inactive)
Cc1cc(C)nc(N2CC(=O)N(C)C2=N)n1 | > 4 mM (inactive)
NC(=O)c1cc(N)cc(C(N)=O)c1 | > 4 mM (inactive)
C[C@@H]1CC[C@@]2(OC1)OC1CC3C4CC=C5C[C@@H](O)CC[C@]5(C)C4CC[C@]3(C)C1[C@@H]2C (stereo partly drawn) | > 4 mM (inactive)
